Experimental data published in the NIST ThermoML archive (doi:10.1016/j.jct.2013.05.019).

Experiment: xn = mol fraction of the nth substance listed
Conditions: 101 kPa, Liquid; for viscosity: Falling or rolling sphere viscometry; for mass density: Vibrating tube method; for electrical conductivity: Alternating current cell with electrodes

CC(=O)O.CCCCN [butylammonium acetate] + O
Conditions	electrical conductivity [S/m]	mass density [kg/m3]	viscosity [mPa·s]
293.15 K, x1 = 0.031	–	1009.89	2.659
293.15 K, x1 = 0.06	–	1015.91	4.018
293.15 K, x1 = 0.0992	–	1014.35	6.792
293.15 K, x1 = 0.2007	–	1003.86	16.91
293.15 K, x1 = 0.2999	–	993.39	35.04
293.15 K, x1 = 0.4013	–	984.8	53.35
293.15 K, x1 = 0.5004	–	977.72	101.3
293.15 K, x1 = 0.5666	–	974.54	141.64
293.15 K, x1 = 0.7973	–	964.56	390.26
293.15 K, x1 = 0.8972	–	962.15	579.35
293.15 K, x1 = 1	–	959.61	771.69
298.15 K, x1 = 0.0006	0.168	–	–
298.15 K, x1 = 0.0012	0.316	–	–
298.15 K, x1 = 0.0018	0.434	–	–
298.15 K, x1 = 0.0026	0.572	–	–
298.15 K, x1 = 0.0032	0.67	–	–
298.15 K, x1 = 0.0046	0.842	–	–
298.15 K, x1 = 0.0078	1.12	–	–
298.15 K, x1 = 0.0121	1.34	–	–
298.15 K, x1 = 0.0181	1.45	–	–
298.15 K, x1 = 0.031	–	1006.58	2.328
298.15 K, x1 = 0.0329	1.54	–	–
298.15 K, x1 = 0.06	–	1013.18	3.345
298.15 K, x1 = 0.0682	1.58	–	–
298.15 K, x1 = 0.0992	–	1011.15	5.626
298.15 K, x1 = 0.0999	1.54	–	–
298.15 K, x1 = 0.2001	1.16	–	–
298.15 K, x1 = 0.2007	–	1000.82	13.83
298.15 K, x1 = 0.2999	–	990.34	28.14
298.15 K, x1 = 0.3479	0.513	–	–
298.15 K, x1 = 0.4013	–	981.74	46.77
298.15 K, x1 = 0.5004	–	974.67	77.42
298.15 K, x1 = 0.5427	0.164	–	–
298.15 K, x1 = 0.5666	–	971.45	102.65
298.15 K, x1 = 0.7973	–	961.46	283.43
298.15 K, x1 = 0.8065	0.074	–	–
298.15 K, x1 = 0.8972	–	958.98	415.18
298.15 K, x1 = 1	0.021	956.44	546.35
303.15 K, x1 = 0.031	–	1003.24	2.196
303.15 K, x1 = 0.06	–	1009.87	2.864
303.15 K, x1 = 0.0992	–	1007.91	4.714
303.15 K, x1 = 0.2007	–	997.74	11.79
303.15 K, x1 = 0.2999	–	987.26	22.91
303.15 K, x1 = 0.4013	–	978.64	40.9
303.15 K, x1 = 0.5004	–	971.64	60.97
303.15 K, x1 = 0.5666	–	968.34	82.19
303.15 K, x1 = 0.7973	–	958.36	211.13
303.15 K, x1 = 0.8972	–	955.83	304.3
303.15 K, x1 = 1	–	953.33	397.17
308.15 K, x1 = 0.031	–	999.87	1.864
308.15 K, x1 = 0.06	–	1006.52	2.439
308.15 K, x1 = 0.0992	–	1004.62	3.985
308.15 K, x1 = 0.2007	–	994.62	9.893
308.15 K, x1 = 0.2999	–	984.17	18.78
308.15 K, x1 = 0.4013	–	975.55	35.59
308.15 K, x1 = 0.5004	–	968.58	48.93
308.15 K, x1 = 0.5666	–	965.22	65.48
308.15 K, x1 = 0.7973	–	955.23	160.94
308.15 K, x1 = 0.8972	–	952.69	227.72
308.15 K, x1 = 1	–	950.15	294.59
313.15 K, x1 = 0.031	–	996.47	1.665
313.15 K, x1 = 0.06	–	1003.14	2.132
313.15 K, x1 = 0.0992	–	1001.29	3.489
313.15 K, x1 = 0.2007	–	991.43	8.389
313.15 K, x1 = 0.2999	–	981.07	15.67
313.15 K, x1 = 0.4013	–	972.44	31
313.15 K, x1 = 0.5004	–	965.54	42.95
313.15 K, x1 = 0.5666	–	962.11	56.12
313.15 K, x1 = 0.7973	–	952.09	133.31
313.15 K, x1 = 0.8972	–	949.53	180.6
313.15 K, x1 = 1	–	946.98	222.24

CCCC[NH3+].O=[N+]([O-])[O-] [n-butylammonium nitrate] + O
Conditions	electrical conductivity [S/m]	mass density [kg/m3]	viscosity [mPa·s]
293.15 K, x1 = 0.1	–	1059.97	2.468
293.15 K, x1 = 0.2001	–	1081.27	4.454
293.15 K, x1 = 0.3009	–	1090.62	7.217
293.15 K, x1 = 0.4004	–	1095.83	11.69
293.15 K, x1 = 0.5011	–	1099.15	17.61
293.15 K, x1 = 0.6505	–	1102.02	31.21
293.15 K, x1 = 0.7869	–	1103.62	51.54
293.15 K, x1 = 0.9022	–	1104.42	78.32
293.15 K, x1 = 1	–	1104.68	111.35
298.15 K, x1 = 0.001	0.583	–	–
298.15 K, x1 = 0.002	0.997	–	–
298.15 K, x1 = 0.004	1.55	–	–
298.15 K, x1 = 0.005	1.73	–	–
298.15 K, x1 = 0.006	1.89	–	–
298.15 K, x1 = 0.0081	2.18	–	–
298.15 K, x1 = 0.02	2.95	–	–
298.15 K, x1 = 0.03	3.19	–	–
298.15 K, x1 = 0.05	3.4	–	–
298.15 K, x1 = 0.0609	3.46	–	–
298.15 K, x1 = 0.1	3.42	1056.89	2.221
298.15 K, x1 = 0.1999	3.31	–	–
298.15 K, x1 = 0.2001	–	1078.05	3.908
298.15 K, x1 = 0.2997	2.95	–	–
298.15 K, x1 = 0.3009	–	1087.35	6.297
298.15 K, x1 = 0.3999	2.52	–	–
298.15 K, x1 = 0.4004	–	1092.56	10.08
298.15 K, x1 = 0.4998	2.08	–	–
298.15 K, x1 = 0.5011	–	1095.89	15.1
298.15 K, x1 = 0.5986	1.77	–	–
298.15 K, x1 = 0.6505	–	1098.8	26.25
298.15 K, x1 = 0.6979	1.45	–	–
298.15 K, x1 = 0.7869	–	1100.42	42.46
298.15 K, x1 = 0.799	1.23	–	–
298.15 K, x1 = 0.9001	1.01	–	–
298.15 K, x1 = 0.9022	–	1101.25	65.05
298.15 K, x1 = 1	0.867	1101.52	89.95
303.15 K, x1 = 0.1	–	1053.73	1.963
303.15 K, x1 = 0.2001	–	1074.8	3.459
303.15 K, x1 = 0.3009	–	1084.06	5.545
303.15 K, x1 = 0.4004	–	1089.29	8.783
303.15 K, x1 = 0.5011	–	1092.64	13.08
303.15 K, x1 = 0.6505	–	1095.58	22.35
303.15 K, x1 = 0.7869	–	1097.24	35.45
303.15 K, x1 = 0.9022	–	1098.1	53.53
303.15 K, x1 = 1	–	1098.38	73.04
308.15 K, x1 = 0.1	–	1050.52	1.754
308.15 K, x1 = 0.2001	–	1071.53	3.088
308.15 K, x1 = 0.3009	–	1080.78	4.924
308.15 K, x1 = 0.4004	–	1086.02	7.715
308.15 K, x1 = 0.5011	–	1089.4	11.42
308.15 K, x1 = 0.6505	–	1092.38	19.25
308.15 K, x1 = 0.7869	–	1094.08	29.98
308.15 K, x1 = 0.9022	–	1094.97	44.59
308.15 K, x1 = 1	–	1095.26	60.25
313.15 K, x1 = 0.1	–	1047.4	1.579
313.15 K, x1 = 0.2001	–	1068.24	2.774
313.15 K, x1 = 0.3009	–	1077.49	4.401
313.15 K, x1 = 0.4004	–	1082.76	6.823
313.15 K, x1 = 0.5011	–	1086.16	10.04
313.15 K, x1 = 0.6505	–	1089.2	16.75
313.15 K, x1 = 0.7869	–	1090.94	25.8
313.15 K, x1 = 0.9022	–	1091.86	37.54
313.15 K, x1 = 1	–	1092.17	50.12
